Data on six molecules can be found in ChEMBL document CHEMBL1148019, “Heterocyclic substituted cantharidin and norcantharidin analogues--synthesis, protein phosphatase (1 and 2A) inhibition, and anti-cancer activity” (Bioorg Med Chem Lett, 2007).

The subject of test [1] is MCF7. Briefly: Cytotoxicity against human MCF7 cells at 100 uM. The test is classed as functional.
Test [2] in a line: Inhibition of Protein phosphatase 2A. On the set-up: species or system Homo sapiens.
Test [3] concerns A-431. The test can be described thus: Cytotoxicity against human A431 cells at 100 uM. The format is functional.
Test [4] in a line: Cytotoxicity against human BE2-C cells at 100 uM. The format is functional. As to conditions: BE(2)-C.
In test [5] the test system is HT-29. The test can be described thus: Cytotoxicity against human HT29 cells at 100 uM. The test is classed as functional.
In test [6] the test system is NCI-H460. Briefly: Cytotoxicity against human H460 cells at 100 uM. The test is classed as functional.
Test [7] relates to SW480. Briefly: Cytotoxicity against human SW480 cells at 100 uM. The format is functional.
Test [8] has as its system DU-145. The test can be described thus: Cytotoxicity against human DU145 cells at 100 uM. The format is functional.
For test [9], the system named is A2780. Briefly: Cytotoxicity against human A2780 cells at 100 uM. The test is classed as functional.
Test [10] is described as follows: Cytotoxicity against human SJ-G2 cells at 100 uM. The test is classed as functional.
Test [11] is described as follows: Inhibition of Protein phosphatase 1. On the set-up: species or system Homo sapiens.
For test [12], the system named is NCI-H460. The test can be described thus: Cytotoxicity against human H460 cells. The format is functional.
Test [13] has as its system MCF7. Briefly: Cytotoxicity against human MCF7 cells. The test is classed as functional.
In test [14] the test system is A-431. The test can be described thus: Cytotoxicity against human A431 cells. The format is functional.
Test [15] deals with HT-29. Briefly: Cytotoxicity against human HT29 cells. The format is functional.
The nature of test [16]: Cytotoxicity against human BE2-C cells. The test is classed as functional. As to conditions: BE(2)-C.
Test [17] relates to DU-145. Briefly: Cytotoxicity against human DU145 cells. The format is functional.
Test [18] has as its system SW480. Briefly: Cytotoxicity against human SW480 cells. The format is functional.
Test [19] concerns A2780. The test can be described thus: Cytotoxicity against human A2780 cells. The test is classed as functional.
Test [20] in a line: Cytotoxicity against human SJ-G2 cells. The format is functional.
For test [21], the species on record is Homo sapiens. Briefly: Inhibition of Protein phosphatase 2A at 100 uM.
For test [22], the species on record is Homo sapiens. The test can be described thus: Inhibition of Protein phosphatase 1 at 100 uM.

For the molecule `O=C(NC(=O)Nc1ccc(N2CCOCC2)cc1)NC(=O)C1C(C(=O)O)[C@@H]2CC[C@H]1O2` (stereo partly specified), the inhibition at 100 µM in the test on MCF7 [1] came out at 20%; in the test with A-431 [3], 21%; in [4], 13%; with HT-29 [5] it was 23%; in the test with NCI-H460 [6], 19%; in the test on SW480 [7], 29%. Also, the inhibition at 100 µM in the test with DU-145 [8] came to 17%; in the test with A2780 [9] it was 18%; in test [10], 21%. For the same molecule, the IC50 in [2] came out at 7.9 µM; in test [11], 6.5 µM.
Take `O=C(NCCN1CCOCC1)NC(=O)C1C(C(=O)O)[C@@H]2CC[C@H]1O2` (stereo partly specified): the inhibition at 100 µM was 7.5% with MCF7 [1]; 23% with A-431 [3]; 26% in test [4]; 37% in the test with HT-29 [5]; 10% in the test with NCI-H460 [6]; 14% with SW480 [7]. Further, the inhibition at 100 µM was determined as 17% in the test with DU-145 [8], 14% with A2780 [9] and 19% in [10]. Moreover, the 50% inhibitory concentration (IC50) in [2] was 43 µM; in [11] it was 31 µM.
As for `C[C@@]12C(=O)OC(=O)[C@]1(C)[C@H]1CC[C@@H]2O1` [CANTHARIDIN], the 50% growth inhibitory concentration (GI50) with NCI-H460 [12] was determined as 4 µM; with MCF7 [13] it was 7 µM; in the test on A-431 [14] it was 3.4 µM; in the test on HT-29 [15] it was 3.3 µM; in test [16] it was 4.9 µM; with DU-145 [17], 2.4 µM. Besides, the results for the GI50 (in the test with SW480 [18]; in the test with A2780 [19]; in [20]) were 4.6 µM, 5.8 µM and 3 µM, respectively. Also, the IC50 in test [2] turned out to be 1.2 µM; in [11], 11 µM.
With `O=C(NCCc1cnc[nH]1)NC(=O)C1C(C(=O)O)[C@@H]2CC[C@H]1O2` (stereo partly specified), the inhibition at 100 µM in the test with MCF7 [1] worked out at 17%; with A-431 [3], 32%; in test [4] it was 23%; in the test on HT-29 [5], 21%; with NCI-H460 [6] it was 25%; with SW480 [7] it was 33%. The figures for the inhibition at 100 µM (in the test on DU-145 [8]; with A2780 [9]; in test [10]) were 14%, 20% and 27%, respectively. Besides, the values for the inhibition in the test filed under Homo sapiens [21] and in the test filed under Homo sapiens [22] were 56% and 35%, respectively.
With `O=C1OC(=O)[C@H]2[C@@H]1[C@@H]1CC[C@H]2O1`, the GI50 in the test on NCI-H460 [12] worked out at 45 µM; in the test on MCF7 [13], 64 µM; in the test on A-431 [14], 33 µM; in the test with HT-29 [15] it was 48 µM; in test [16], 56 µM; in the test on DU-145 [17], 3 µM. The GI50 in the test on SW480 [18] is 35 µM; in the test with A2780 [19] it was 59 µM; in test [20] it was 35 µM. Moreover, the IC50 in test [2] was 3 µM; in test [11], 9 µM.
For the molecule `C[C@]1(C(=O)O)[C@@H]2CC[C@@H](O2)[C@@]1(C)C(=O)NC(=O)N1CCOCC1`, the 50% growth inhibitory concentration (GI50) was determined as 3.3 µM with NCI-H460 [12]; 5.8 µM in the test with MCF7 [13]; 2.9 µM with A-431 [14]; 2.8 µM in the test with HT-29 [15]; 2.5 µM in test [16]; 1.7 µM with DU-145 [17]. For the same molecule, the GI50 with SW480 [18] came out at 3.9 µM; in the test with A2780 [19] it was 4.9 µM; in [20], 2.1 µM. The IC50 is 0.79 µM in test [2] and 5.9 µM in [11].
